Source: PubChem BioAssay AID1053191 (Broad Institute, 2014)
Inconclusive results are not listed. The source made the active and inactive calls.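 How the source made its calls: active means compounds whose fitted half-maximal potency for killing cells lies within twice their highest tested dose; inconclusive means flat curve with 30 to 70% signal loss, or poor fit; inactive means the rest.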

System: HEK293T viability, ATP luminescence, 72 h
Assay: HEK293 cell viability loss – dry powder samples, cytotoxicity control, dose response (AID 1053191)
Details: not given
In the case of `O=C(c1c(F)cccc1F)N(Cc1ccccc1)Cc1ccccc1`, the AC50 is reported as 50 µM.

System: not listed separately
Assay: as above
Details: HEK293T viability, ATP luminescence, 72 h; at 50 µM (top of the series)
For `CNc1ccccc1C(C)(C)c1cc(-c2cccc(OC)c2)no1`, the activity change, negative = cytotoxic was -41.9% (inactive).
With `Cc1ccc(S(=O)(=O)NCc2ccc3c(c2)cc(C)n3C)cc1` the activity change, negative = cytotoxic was -7.83% (inactive).
With `Cc1cc2ccccc2n1CCNC(=O)COc1ccc2ccccc2c1` the activity change, negative = cytotoxic was -12.6% (inactive).
In the case of `Cc1ccc(CSc2nc3[nH]ncc3c(=O)[nH]2)cc1`, the activity change, negative = cytotoxic is reported as -29.4% (inactive).
For `Cc1cc2cc(CNC(=O)Nc3ccc(Cl)c(Cl)c3)ccc2n1C`, the activity change, negative = cytotoxic was -15.7% (inactive).
In the case of `COc1ccc(Nc2ccccc2N)cc1`, the activity change, negative = cytotoxic is reported as -11.7% (inactive).
For `Cc1cccc(NC(=O)NCc2ccc3c(c2)cc(C)n3C)c1`, the activity change, negative = cytotoxic was -22.6% (inactive).
With `OCc1ccc(-c2nn(Cc3ccccc3)c3ccccc23)o1` the activity change, negative = cytotoxic was 4.83% (inactive).
With `Cc1cc(C)c(S(=O)(=O)NCCn2c(C)cc3ccccc32)c(C)c1` the activity change, negative = cytotoxic was -16.1% (inactive).
In the case of `O=C(O)C1CCN(c2nc(-c3ccccc3)c3cc(Br)ccc3n2)CC1`, the activity change, negative = cytotoxic is reported as 13.4% (inactive).
For `COc1cc(CC2C(=O)Nc3ccccc32)cc(C)c1O` (centres undefined), the activity change, negative = cytotoxic was -16.6% (inactive).
For `CCc1cccc2c1NC1(CCCC1)CC2C` (centres undefined), the activity change, negative = cytotoxic was -4.91% (inactive).
In the case of `CCc1ccc(-n2c(=S)sc3c(=O)n(-c4ccccc4C)c(SCC(=O)O)nc32)cc1`, the activity change, negative = cytotoxic is reported as 12.6% (inactive).
